In ChEMBL document CHEMBL1201862, “PubChem BioAssay data set” (2004):
Activity calls are given as the source filed them.

Columns and labels:
[1] = molecular target: T1, Aminopeptidase N (Plasmodium falciparum FcB1/Columbia, UniProt O96935); assay: malaria alanyl aminopeptidase activity blockers – biochemical, fluorogenic H-Leu-NHMec substrate, 1536-well (AID 1445); set-up: species or system Plasmodium falciparum 3D7, 3D7
T1 sequence (O96935 whole entry): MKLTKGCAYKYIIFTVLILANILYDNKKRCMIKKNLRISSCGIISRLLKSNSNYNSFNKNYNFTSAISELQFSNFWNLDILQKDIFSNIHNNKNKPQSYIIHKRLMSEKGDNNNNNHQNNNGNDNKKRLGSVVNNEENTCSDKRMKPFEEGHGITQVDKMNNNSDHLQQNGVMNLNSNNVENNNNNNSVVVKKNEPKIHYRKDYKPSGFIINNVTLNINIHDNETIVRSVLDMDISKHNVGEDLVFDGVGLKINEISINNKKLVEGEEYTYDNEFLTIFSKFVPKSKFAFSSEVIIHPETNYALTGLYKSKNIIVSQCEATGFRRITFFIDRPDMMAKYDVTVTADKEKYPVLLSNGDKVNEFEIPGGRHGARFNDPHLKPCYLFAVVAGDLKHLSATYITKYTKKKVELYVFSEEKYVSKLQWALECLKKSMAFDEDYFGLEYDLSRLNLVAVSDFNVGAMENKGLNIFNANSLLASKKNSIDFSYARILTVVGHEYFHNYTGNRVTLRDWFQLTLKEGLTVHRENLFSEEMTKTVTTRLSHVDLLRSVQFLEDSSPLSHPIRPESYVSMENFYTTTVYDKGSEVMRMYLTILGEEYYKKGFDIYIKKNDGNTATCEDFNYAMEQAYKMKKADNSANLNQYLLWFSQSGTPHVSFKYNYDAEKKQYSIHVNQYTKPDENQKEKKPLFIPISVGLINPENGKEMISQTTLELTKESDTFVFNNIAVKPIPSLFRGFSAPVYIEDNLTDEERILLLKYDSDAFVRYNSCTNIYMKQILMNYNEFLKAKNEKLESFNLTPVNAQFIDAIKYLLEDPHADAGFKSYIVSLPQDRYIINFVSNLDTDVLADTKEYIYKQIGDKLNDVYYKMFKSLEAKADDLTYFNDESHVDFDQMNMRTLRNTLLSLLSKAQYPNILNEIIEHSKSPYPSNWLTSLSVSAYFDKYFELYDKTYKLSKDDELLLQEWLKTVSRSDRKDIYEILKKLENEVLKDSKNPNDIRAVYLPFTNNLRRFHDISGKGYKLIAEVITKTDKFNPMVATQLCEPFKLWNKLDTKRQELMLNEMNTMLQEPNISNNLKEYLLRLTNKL

[2] = molecular target: T2, Corticotropin-releasing factor receptor 2/Corticotropin-releasing factor-binding protein (Homo sapiens, UniProt P24387+Q13324); assay: activators of CRF receptor 2 with binding protein – uHTS hits, confirmation (AID 602473); type: functional; details: read-out: EC50_Mean
T2 sequence (Q13324 whole entry): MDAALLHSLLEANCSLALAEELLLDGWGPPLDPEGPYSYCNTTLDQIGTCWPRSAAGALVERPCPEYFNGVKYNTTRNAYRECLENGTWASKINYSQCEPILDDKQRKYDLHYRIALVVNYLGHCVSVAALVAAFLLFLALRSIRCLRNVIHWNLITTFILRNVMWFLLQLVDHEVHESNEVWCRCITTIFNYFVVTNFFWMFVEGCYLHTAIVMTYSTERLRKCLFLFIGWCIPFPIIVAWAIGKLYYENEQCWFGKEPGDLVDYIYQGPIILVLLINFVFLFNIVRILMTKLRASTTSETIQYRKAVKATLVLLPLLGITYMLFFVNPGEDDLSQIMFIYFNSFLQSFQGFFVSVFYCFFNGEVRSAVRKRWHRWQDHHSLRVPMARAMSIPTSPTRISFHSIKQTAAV
T2 sequence (P24387 whole entry): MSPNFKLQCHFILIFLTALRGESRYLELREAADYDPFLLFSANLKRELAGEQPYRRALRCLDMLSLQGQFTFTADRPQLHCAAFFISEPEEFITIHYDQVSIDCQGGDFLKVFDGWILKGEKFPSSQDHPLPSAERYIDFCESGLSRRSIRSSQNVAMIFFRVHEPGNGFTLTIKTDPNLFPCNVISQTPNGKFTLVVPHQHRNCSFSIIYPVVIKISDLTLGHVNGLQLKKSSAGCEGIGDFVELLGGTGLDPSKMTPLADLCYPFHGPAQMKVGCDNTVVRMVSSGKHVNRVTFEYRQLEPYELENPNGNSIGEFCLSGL

[3] = molecular target: T3, RNA-binding protein pos-1 (Caenorhabditis elegans, UniProt G5EF15); assay: disruptors of C. elegans POS-1 RNA interaction – biochemical, fluorescence polarization, dose response (AID 1964);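 further: purified POS-1 fused to maltose binding protein made in E. coli; potency of compounds blocking POS-1 binding to fluorescent RNA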
T3 sequence (G5EF15 whole entry): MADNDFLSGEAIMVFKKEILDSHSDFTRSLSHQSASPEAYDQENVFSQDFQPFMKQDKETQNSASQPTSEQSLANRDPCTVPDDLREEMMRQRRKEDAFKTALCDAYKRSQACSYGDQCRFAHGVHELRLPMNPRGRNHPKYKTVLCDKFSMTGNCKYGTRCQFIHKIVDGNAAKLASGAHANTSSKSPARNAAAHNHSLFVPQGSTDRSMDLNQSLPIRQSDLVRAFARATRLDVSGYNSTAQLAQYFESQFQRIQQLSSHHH

[4] = molecular target: T4, Zinc finger protein mex-5 (Caenorhabditis elegans, UniProt Q9XUB2); assay: potency of MEX-5 RNA-binding blockers – biochemical, C. elegans, fluorescence polarization, dose response (AID 1960)
T4 sequence (Q9XUB2 whole entry): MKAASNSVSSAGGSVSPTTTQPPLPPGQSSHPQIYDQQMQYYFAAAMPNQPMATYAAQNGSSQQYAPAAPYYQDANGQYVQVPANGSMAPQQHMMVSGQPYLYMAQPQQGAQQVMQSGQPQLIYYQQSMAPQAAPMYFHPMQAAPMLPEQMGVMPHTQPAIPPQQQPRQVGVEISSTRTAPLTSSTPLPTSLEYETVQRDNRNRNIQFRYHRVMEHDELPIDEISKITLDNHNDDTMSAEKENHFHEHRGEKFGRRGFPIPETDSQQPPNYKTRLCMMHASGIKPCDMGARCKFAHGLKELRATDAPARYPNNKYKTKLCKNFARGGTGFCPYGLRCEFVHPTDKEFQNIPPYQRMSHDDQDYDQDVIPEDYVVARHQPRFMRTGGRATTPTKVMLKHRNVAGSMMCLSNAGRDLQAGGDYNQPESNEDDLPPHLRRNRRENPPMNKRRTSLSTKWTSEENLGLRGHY

[5] = molecular target: T5, Protein RecA (Mycobacterium tuberculosis, UniProt P9WHJ3); assay: Fluorescence Cell-Free Homogeneous Dose Retest to Identify Inhibitors of RecA-Intein Splicing Activity. [Related pubchem assays (depositor defined):AID2097, AID2223, AID489010, AID492950]; type: functional
T5 sequence (P9WHJ3 whole entry): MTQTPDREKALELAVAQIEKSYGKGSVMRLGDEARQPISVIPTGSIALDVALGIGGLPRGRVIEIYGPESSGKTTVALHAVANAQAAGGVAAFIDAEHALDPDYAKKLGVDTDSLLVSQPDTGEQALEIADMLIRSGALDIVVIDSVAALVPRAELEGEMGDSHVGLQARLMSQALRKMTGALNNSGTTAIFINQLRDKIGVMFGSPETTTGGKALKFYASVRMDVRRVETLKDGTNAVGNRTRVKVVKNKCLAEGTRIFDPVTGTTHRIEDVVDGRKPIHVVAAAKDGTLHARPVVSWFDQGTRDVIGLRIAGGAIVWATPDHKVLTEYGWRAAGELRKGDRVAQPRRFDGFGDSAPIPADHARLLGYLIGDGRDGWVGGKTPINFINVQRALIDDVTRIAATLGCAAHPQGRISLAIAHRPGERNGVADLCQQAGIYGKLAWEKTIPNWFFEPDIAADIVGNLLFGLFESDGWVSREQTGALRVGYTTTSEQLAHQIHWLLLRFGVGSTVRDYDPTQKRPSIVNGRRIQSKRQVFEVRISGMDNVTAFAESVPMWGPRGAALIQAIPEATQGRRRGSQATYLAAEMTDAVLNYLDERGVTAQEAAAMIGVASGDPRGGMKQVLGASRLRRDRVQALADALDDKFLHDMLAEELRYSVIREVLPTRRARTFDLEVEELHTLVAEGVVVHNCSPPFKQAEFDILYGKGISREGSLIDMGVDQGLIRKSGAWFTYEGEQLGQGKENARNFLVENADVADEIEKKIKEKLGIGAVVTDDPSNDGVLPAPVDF

[6] = molecular target: T6, Replicative DNA helicase DnaB (Mycobacterium tuberculosis, UniProt P9WMR3); assay: DnaB intein splicing inhibitors, dose response, biochemical, cell-free fluorescence (AID 449749); type: functional
T6 sequence (P9WMR3 whole entry): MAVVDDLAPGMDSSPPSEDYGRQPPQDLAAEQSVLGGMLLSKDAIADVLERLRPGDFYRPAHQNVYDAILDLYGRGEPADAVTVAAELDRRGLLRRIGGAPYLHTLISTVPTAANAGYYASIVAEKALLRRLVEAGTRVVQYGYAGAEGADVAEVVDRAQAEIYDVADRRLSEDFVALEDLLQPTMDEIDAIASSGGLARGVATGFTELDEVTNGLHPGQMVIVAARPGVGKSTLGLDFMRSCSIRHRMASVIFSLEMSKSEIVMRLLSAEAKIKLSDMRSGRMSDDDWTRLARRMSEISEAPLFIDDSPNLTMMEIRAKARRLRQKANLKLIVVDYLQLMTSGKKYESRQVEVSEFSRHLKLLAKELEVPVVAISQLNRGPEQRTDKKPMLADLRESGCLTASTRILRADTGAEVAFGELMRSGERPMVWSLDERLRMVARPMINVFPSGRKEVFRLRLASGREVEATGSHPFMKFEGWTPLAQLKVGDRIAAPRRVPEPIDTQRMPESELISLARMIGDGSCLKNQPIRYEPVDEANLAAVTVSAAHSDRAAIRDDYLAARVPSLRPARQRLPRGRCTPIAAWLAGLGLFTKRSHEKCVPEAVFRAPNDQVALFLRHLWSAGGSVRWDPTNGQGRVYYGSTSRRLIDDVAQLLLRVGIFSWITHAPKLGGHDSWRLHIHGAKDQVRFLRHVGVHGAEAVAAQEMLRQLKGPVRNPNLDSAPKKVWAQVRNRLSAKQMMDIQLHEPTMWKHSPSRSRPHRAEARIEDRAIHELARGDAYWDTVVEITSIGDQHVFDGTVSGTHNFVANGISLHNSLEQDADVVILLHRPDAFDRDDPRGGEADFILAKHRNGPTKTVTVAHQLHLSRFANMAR

[7] = molecular target: Cytochrome P450 2C19 (Homo sapiens, UniProt P33261); assay: Cytochrome panel assay with activity outcomes. Panel member name: p450-cyp2c19 Compounds with AC50 equal or less than 10 uM are considered active; type: functional; details: read-out: AC50
Sequence of Cytochrome P450 2C19 (P33261 whole entry): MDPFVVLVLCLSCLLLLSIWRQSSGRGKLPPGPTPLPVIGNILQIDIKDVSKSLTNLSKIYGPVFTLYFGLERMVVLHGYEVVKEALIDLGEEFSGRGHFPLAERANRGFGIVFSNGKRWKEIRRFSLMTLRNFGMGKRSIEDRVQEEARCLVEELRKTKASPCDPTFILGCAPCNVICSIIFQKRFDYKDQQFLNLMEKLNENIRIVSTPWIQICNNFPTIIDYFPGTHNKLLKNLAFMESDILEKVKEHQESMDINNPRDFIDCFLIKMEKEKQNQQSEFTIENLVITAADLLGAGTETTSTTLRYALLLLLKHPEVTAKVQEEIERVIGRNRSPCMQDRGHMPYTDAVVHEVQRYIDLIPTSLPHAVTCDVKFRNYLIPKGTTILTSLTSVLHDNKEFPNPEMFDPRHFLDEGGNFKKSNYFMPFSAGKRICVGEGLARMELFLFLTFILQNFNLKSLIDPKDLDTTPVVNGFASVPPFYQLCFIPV

[8] = molecular target: Cytochrome P450 2C9 (Homo sapiens, UniProt P11712)
Sequence of Cytochrome P450 2C9 (P11712 whole entry): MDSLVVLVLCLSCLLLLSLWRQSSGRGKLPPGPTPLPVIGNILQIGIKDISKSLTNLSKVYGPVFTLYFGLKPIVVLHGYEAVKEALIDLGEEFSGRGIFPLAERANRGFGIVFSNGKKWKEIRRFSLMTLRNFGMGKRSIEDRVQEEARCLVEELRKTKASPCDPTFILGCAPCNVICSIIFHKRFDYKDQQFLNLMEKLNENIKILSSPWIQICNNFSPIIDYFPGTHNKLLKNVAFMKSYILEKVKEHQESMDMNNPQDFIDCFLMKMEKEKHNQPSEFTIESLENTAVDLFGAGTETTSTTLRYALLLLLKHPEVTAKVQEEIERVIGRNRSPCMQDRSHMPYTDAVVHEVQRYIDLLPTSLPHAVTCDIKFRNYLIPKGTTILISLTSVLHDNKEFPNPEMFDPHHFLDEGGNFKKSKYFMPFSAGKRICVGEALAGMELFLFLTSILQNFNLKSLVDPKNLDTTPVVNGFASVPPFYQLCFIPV

[9] = system: BJ; assay: cells; type: functional, cell-based; details: Homo sapiens
[10] = system: BJ; assay: BJ-TERT-LT-ST fibroblast viability loss – cell-based, RAS-independent, luminescence, dose response (AID 1935); type: functional; details: Homo sapiens;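 further: BJ fibroblasts immortalized with TERT plus LT and ST oncogenes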
[11] = DRD fibroblast viability loss – cell-based, non-viral oncogenic, luminescence, dose response (AID 1934); type: functional; details: Homo sapiens
[12] = system: Streptococcus; assay: GAS UMAA2166 growth inhibition – luminescence, BacTiterGlo, counter-screen for streptokinase expression inhibitor project, dose response (AID 1915); type: functional, organism-based;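 further: potency for reduction of bacterial viability or growth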
[13] = system: BJ; assay: BJ-TERT fibroblast viability loss – cell-based, RAS-independent, luminescence, dose response (AID 1933); type: functional; details: Homo sapiens
[14] = system: Streptococcus sp. 'group A'; assay: Streptococcus pyogenes SK(-)GAS viability under kanamycin – luminescence, BacTiterGlo, confirmation, counter-screen for streptokinase expression inhibitor project, dose response (AID 1900); type: functional, organism-based

COc1cc(/C=C2\C(=N)N3C(=NC2=O)Sc2cc(S(C)(=O)=O)ccc23)ccc1O
IC50 [1]: 45.7 µM (active) | EC50 [2]: 5.19 µM (active)

CCCOc1ccc(C(C)=O)cc1CSc1nc(O)cc(=O)[nH]1
IC50 [1]: 109 µM (active)

Cc1cccc(S(=O)(=O)C(C#N)c2nc3ccccc3nc2N2CCOCC2)c1 (stereo not drawn)
EC50 [3]: 163 µM (active) | EC50 [4]: > 300 µM (not active)

CCOC(=O)C1=C(Nc2ccccc2)S/C(=C\c2ccc(OCC(=O)O)c(OCC)c2)C1=O
IC50 [1]: 60.2 µM (active)

O=C(COc1ccccc1/C=C1\SC(=O)NC1=O)Nc1ccccc1
IC50 [1]: 32.6 µM (active)

CCOC(=O)N1CCN(c2nc3ccccc3nc2C(C#N)S(=O)(=O)c2ccc(C)cc2)CC1 (stereo not drawn)
EC50 [3]: > 300 µM (inconclusive) | EC50 [4]: 170 µM (inconclusive)

NS(=O)(=O)c1ccc(-c2cccc(/C=C3\SC(=O)NC3=O)c2)cc1
EC50 [3]: 13 µM (active) | EC50 [4]: 16.6 µM (active)

COc1ccc(OC)c(NC(=O)C2C3C=CC(C3)C2C(=O)NCc2cccnc2)c1 (stereo not drawn)
IC50 [1]: 48.2 µM (active)

COc1ccc(/C=C/C(O)=C2\C(=O)NC(=O)N(CCC3=CCCCC3)C2=O)cc1OC
EC50 [3]: 6.09 µM (inconclusive) | EC50 [4]: > 300 µM (inconclusive)

Cc1[nH][nH]c(=O)c1C(c1cc([N+](=O)[O-])ccc1O)c1c(C)[nH][nH]c1=O
EC50 [5]: 0.262 µM (active) | AC50 [6]: 0.399 µM (active) | IC50 [1]: 30.1 µM (active) | EC50 [3]: 64.5 µM (active) | EC50 [4]: 16.7 µM (active)

CN1C(=O)C(=Cc2ccc(N3CCCCC3)o2)C(=O)N(C)C1=S
EC50 [3]: > 300 µM (inconclusive) | AC50 [7]: 2.82 µM (inconclusive) | EC50 [4]: > 300 µM (inconclusive) | AC50 [8]: 11.2 µM (inconclusive)

Cc1ccc(-n2nc(C)c(/C=N/NC(=O)c3cccc([N+](=O)[O-])c3)c2O)cc1C
EC50 [9]: 37 µM (active) | EC50 [10]: 16 µM (active) | EC50 [11]: 10 µM (active) | EC50 [12]: 6.18 µM (active) | EC50 [13]: 9.53 µM (active) | EC50 [14]: 2.02 µM (active)

Oc1cccc2cccnc12 [OXYQUINOLINE]
EC50 [9]: 125 µM (active) | EC50 [10]: > 150 µM (not active) | EC50 [11]: 17.9 µM (active) | EC50 [13]: > 150 µM (not active)
